# Reference: US20090018021A1, “Methyl jasmonate decreases fruit detachment force of grapes” (Regents of the University of California, priority 2006, published 2009)
# Where “and” joins values, the source holds several entries; their conditions need not be identical. Equal entries are not always repeated.
# How the values were obtained:
# [1] = test system: Thompson Seedless grapevines; assay: Fruit detachment force (FDF), Thompson Seedless experiment; format: in vivo, grape; conditions: for FDF: ten days after treatment
# Procedure: (§1) An experiment was conducted in a 40-year-old Thompson Seedless vineyard at the Kearney Agricultural Center in Parlier, California. The site was typical of conventional raisin vineyards, with head-trained, cane-pruned vines on a two-wire T-shaped trellis with a 0.6 m cross arm. The soil was a deep Hanford fine sandy loam.
# (§2) The vineyard was divided into plots consisting of vine sections (within-row spaces between two adjacent vine trunks) of uniform appearance and crop load. Each plot was surrounded by guard vines within and between rows. Treatments consisted of 26 different solutions made up of various potential abscission agents (Table 1). Because the concentrations varied widely between agents, each solution was considered a different treatment, and a randomized complete block design was used. All treatments, except for coronatine, were replicated four times. Due to a lack of material, coronatine was only applied to two plots; therefore, data from that treatment were not subjected to statistical analysis though observations were made.
# (§3) Composite berry samples were collected weekly to monitor soluble solids accumulation by the fruits. Samples consisted of about 100 berries collected from the top, middle and bottom of about 33 randomly selected clusters. Berries were homogenized in a blender, their juice filtered, and soluble solids measured with a temperature compensating digital refractometer (Palette 101, Atago, Farmingdale, N.Y.). Once the fruits amassed sufficient soluble solids for raisin making (>19 Brix), abscission agents were dissolved or dispersed in water with adjuvant added (0.1%, v/v, Latron B-1956™, Britz, Parlier, Calif.) except MeJA solutions which contained 0.2% adjuvant. Control solutions contained the adjuvant only (0.2% v/v). Immediately after their preparation, solutions were applied to the vines of each plot with a gasoline-powered back-pack sprayer (Solo, Newport News, R.I.) until runoff. Vines within harvest pruned (HP) plots were not treated with any solutions, but their canes were severed on the same day that solutions were applied.
# (§4) The soil surface within each plot was covered with ground cloth to collect any berries that might fall from the canopy. […] In those plots and in the control and HP plots, all abscised berries were collected from the ground cloth into paper bags and placed in a forced air oven (60 C) until they reached a constant weight. Clusters of grapes on vines from all the plots were carefully harvested and brought into a laboratory where fruit detachment force (FDF) measurements were made. Any grapes that detached from the vines at harvest were considered to be retained by the vine until harvest. These berries were collected into paper bags and placed in a forced air oven to dry.
# (§5) Three representative clusters were selected from all the clusters of each plot and ten rachis sections from the top, middle, and bottom of the three clusters were removed by cutting the rachis with shears. A berry from each section was placed in a jig attached to a force gauge (DPS-11, Imada Inc., Northbrook, Ill.). The rachis was pulled parallel to the fruit axis until it separated from the fruit. The force required to detach each berry from the rachis in grams-force was recorded as the fruit detachment force. The condition of each detached berry was noted, and the berries were placed in paper bags along with all the other berries that were picked from that plot. These berries were also placed in the forced air oven and dried to a constant weight. The proportion of berries that abscised from the vine was calculated on a dry weight basis by dividing the dry weight of the abscised berries in each plot by the combined weight of the retained and abscised berries in that plot. Finally, canopy damage in each plot was inspected visually and assigned a rating of 0 (no obvious foliar damage), 1 (appearance of slight foliar damage), 2 (appearance of moderate foliar damage), or 3 (appearance of severe foliar damage).
# [2] = test system: Thompson Seedless grapevines; assay: Visual canopy damage rating, Thompson Seedless experiment; format: in vivo, grape; conditions: ten days after treatment
# From the text: as §2
# Composite berry samples were collected weekly to monitor soluble solids accumulation by the fruits. Samples consisted of about 100 berries collected from the top, middle and bottom of about 33 randomly selected clusters. […] Control solutions contained the adjuvant only (0.2% v/v). Immediately after their preparation, solutions were applied to the vines of each plot with a gasoline-powered back-pack sprayer (Solo, Newport News, R.I.) until runoff. Vines within harvest pruned (HP) plots were not treated with any solutions, but their canes were severed on the same day that solutions were applied.
# as §5
# [3] = test system: Thompson Seedless grapevines; assay: Fruit drop (berry abscission) from treated vines, Thompson Seedless experiment; format: in vivo, grape; conditions: for Percent fruit drop (dry wt/dry wt): 10 days after treatment; for Berry abscission observed in plots: ten days after treatment, all 26 solutions compared
# Procedure: as §1, §2, §3, §4, §5
# [4] = test system: Cabernet Sauvignon grapevines; assay: Fruit detachment force and fruit drop, Cabernet Sauvignon; format: in vivo, grape; conditions: 4500 ppm, 14 DAT
# Procedure: (§6) An experiment was conducted in a nine-year-old vineyard of own-rooted Cabernet Sauvignon and Merlot grapevines on a vertical two-wire […]. Whole vines were sprayed to runoff on Day 0 with solutions containing 0 or 4500 ppm MeJA and an adjuvant (Latron B-1956; 0.2% v/v) in a completely randomized design replicated four times. On 14 DAT, four representative clusters were collected from each of four vines and ten rachis sections were prepared from each cluster. Fruit detachment force was measured from berries attached to each section, as described previously. Condition of the detached berries was noted, and all the berries from each cluster were counted, weighed, and homogenized in a blender. The juice from each sample was filtered and soluble solids, pH, and titratable acidity of the filtered juices were determined using standard methods. All data were subjected to analysis of variance using the general linear models procedure (PROC GLM) of SAS statistical software (SAS Inst., Cary, N.C.). Duncan's New Multiple Range Test was used to separate treatment means.
# [5] = test system: Merlot grapevines; assay: Fruit detachment force and fruit drop, Merlot; format: in vivo, grape; conditions: 4500 ppm, 14 DAT
# Procedure: as §6
# [6] = test system: citrus trees; conditions: cited from earlier work
# [7] = test system: Crimson Seedless grapes; assay: Abscission and fruit detachment force, Crimson Seedless experiment; format: in vivo, grape
# Procedure: An experiment was conducted in a fourteen-year-old vineyard of own-rooted Crimson Seedless grapes on an open-gable trellis. Individual clusters of grapes were sprayed to runoff with one of four solutions containing 0, 1125, 2250, or 4500 ppm MeJA and an adjuvant (0.2% v/v, Latron-B 1956). On Day 0, treatments were applied in a randomized, complete block design with clusters as observational units, and vines as blocks. Each spray treatment was applied to 4 replicate clusters. During treatment, clusters were surrounded with plastic shields to protect other clusters from overspray and runoff. The day after treatment, each cluster was enclosed in a plastic mesh bag to collect any berries that might abscise. Clusters were harvested 14 DAT. Ten rachis sections were collected from each cluster and FDF was measured as described previously. The condition of the detached berries was noted, and the berries from each cluster were then separately weighed and homogenized in a blender. Juices were filtered and soluble solids, pH, and titratable acidity of the filtered juices were determined using standard methods.
# All data were subjected to analysis of variance using the general linear models procedure (PROC GLM) of SAS statistical software (SAS Inst., Cary, N.C.). Duncan's New Multiple Range Test was used to separate treatment means. […]
# [8] = test system: Thompson Seedless grapevines; assay: Bud break and shoot growth six months after treatment, Thompson Seedless experiment; format: in vivo, grape; conditions: 2000 ppm, evaluated six months later
# Procedure: Each plot was inspected again six months later when bud break and shoot growth were evaluated. To evaluate bud break, plots received one of the following scores; 0=shoots emerged from 0-20% of nodes; 1=shoots emerged from 20-40% of nodes, 2=shoots emerged from 40-60% of nodes, 3=shoots emerged from 60-80% of nodes, or 4=shoots emerged from 80-100% of nodes. Shoot growth in each plot was also evaluated on a five-point scale, based on the proportion of shoots that had progressed to the five-leaf stage (Eichorn-Lorenz stage 12; Eichorn and Lorenz, Phaenologische Entwicklungsstadien der Rebe. Nachrichtenbl. Deut. Pflanzenschutzd. (Braunschweig) 29:119-120 (1977)).
structure (smiles),measurement,setting,value
"Cc1n[nH]c(Cl)c1[N+](=O)[O-] [CMNP, 5-chloro-3-methyl-4-nitro-1H-pyrazole]",FDF,[1]; 20 ppm,0.244 cd kg
same,FDF,[1]; 200 ppm,0.156 fg·kg
same,FDF,[1]; 1000 ppm,0.161 fg·kg
same,FDF,[1]; 2000 ppm,0.182 ef kg
same,Canopy damage (0-3; none-severe),[2]; 20 ppm,1.25 cde
same,Canopy damage (0-3; none-severe),[2]; 200 ppm,1.25 bcd
same,Canopy damage (0-3; none-severe),[2]; 1000 ppm,1.75 bc
same,Canopy damage (0-3; none-severe),[2]; 2000 ppm,2.75 a
"CC/C=C\CC1C(=O)CCC1CC(=O)OC (stereo not drawn) [MeJA, methyl jasmonate]",FDF,[1]; 45 ppm,0.169 fg·kg
same,FDF,[1]; 450 ppm,0.124 gh kg
same,FDF,[1]; 2250 ppm,0.079 hi kg
same,FDF,[1]; 4500 ppm,0.052 i kg
same,Reduction of FDF compared with cane severance,"[1]; any concentration ≧450 ppm, 10 DAT",reduced FDF at least as effectively as cane severance
same,Reduction of FDF compared to non-treated vines,"[1]; lowest concentration tested, 10 DAT",reduced FDF by half
same,Percent fruit drop (dry wt/dry wt),[3]; 45 ppm,0.26 c percent
same,Percent fruit drop (dry wt/dry wt),[3]; 450 ppm,6.37 c percent
same,Percent fruit drop (dry wt/dry wt),[3]; 4500 ppm,50% and 50.71 a percent
same,Berry abscission observed in plots,[3],berry abscission was only observed in plots treated with MeJA or coronatine
same,Abscised berries observed,"[3]; within 2 days after treatment, ≧450 ppm (2 mM)",abscised berries were observed
same,"Fruit drop (appeared, not measured)",[4],less than 10%
same,Reduction of FDF compared to non-treated vines,[4],66%
same,"Fruit drop (appeared, not measured)",[5],less than 10%
same,Reduction of FDF compared to non-treated vines,[5],75%
same,Fruit on treated trees dropped,"[6]; citrus trees, 2250-4500 ppm, within 10 DAT (Hartmond et al. 2000)",about 20%
same,FDF less than fruit from non-treated trees,"[6]; citrus trees, solutions of 2250-4500 ppm (Hartmond et al. 2000)",75-80%
same,FDF of berries retained after harvest versus concentration applied,"[7]; 14 DAT, 0-4500 ppm",FDF decreased as a linear function of the concentration of MeJA applied
same,Abscission of grapes from clusters,"[7]; within 14 DAT, clusters sprayed with 1125, 2250 or 4500 ppm",did not abscise from any clusters
NC1(C(=O)O)CC1 [VBC-30069],FDF,[1]; 50 ppm,0.261 cd kg
same,FDF,[1]; 150 ppm,0.266 abcd kg
CC1(C)OC[C@@H]2O[C@@]3(C(=O)O)OC(C)(C)O[C@H]3[C@@H]2O1 [Dikegulac],FDF,[1]; 20 ppm,0.291 abc kg
same,FDF,[1]; 200 ppm,0.27 ab kg
same,FDF,[1]; 1000 ppm,0.288 ab kg
same,FDF,[1]; 2000 ppm,0.176 efg kg
same,Canopy damage (0-3; none-severe),[2]; 20 ppm,1.00 cd
same,Canopy damage (0-3; none-severe),[2]; 200 ppm,1.25 bcd
same,Canopy damage (0-3; none-severe),[2]; 1000 ppm,0.5
same,Canopy damage (0-3; none-severe),[2]; 2000 ppm,1.50 bcd
same,Appearance of shoots,[8],cupped leaves and short internodes
same,Leaf loss expected,"[6]; citrus, at certain times of the season (Pozo et al, 2004)","(Pozo et al, 2004). Expect 15-20%"
CC[C@H]1C=C(C(=O)N[C@@]2(C(=O)O)C[C@@H]2CC)[C@H]2CCC(=O)[C@H]2C1 [Coronatine],"Fruit drop (observation, not statistically analysed)","[3]; 200 ppm, two plots only, 10 DAT",fruit drop appeared similar to that of vines treated with 2250 ppm MeJA
same,Berry abscission observed in plots,[3],berry abscission was only observed in plots treated with MeJA or coronatine
same,Defoliation expected,"[6]; citrus (Burns et al., 2003)",chlorosis. Expect ~10% defoliation.
